Assay results: ChEMBL document CHEMBL1201862, “PubChem BioAssay data set” (2004)
“And” between values parts separate entries of the source, which are not always exact repeats. Equal values may be shown once.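 All cell lines were grown in 96-well plates and treated with compound for 48 hours. Abbreviation: GI50, concentration required for 50% inhibition of growth.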 The source made the active and inactive calls. No stated cut-off is given here; in the data, active = GI50 up to about 1.1 µM and inactive = higher.

Legend:
Assay in all cases: growth of human tumour cells (NCI), 48 h
SNB-75 = test system: SNB-75
HL-60 = test system: HL-60
SK-OV-3 = test system: SK-OV-3
LOX IMVI = test system: LOX IMVI
CCRF-CEM = test system: CCRF-CEM
IGROV-1 = test system: IGROV-1
SF-295 = test system: SF-295
ACHN = test system: ACHN
RXF 393 = test system: RXF 393
HCT-15 = test system: HCT-15
K562 = test system: K562
A498 = test system: A498
SR = test system: SR
SW-620 = test system: SW-620
TK-10 = test system: TK-10
OVCAR-3 = test system: OVCAR-3
UACC-62 = test system: UACC-62
HCC 2998 = test system: HCC 2998
SF-268 = test system: SF-268
UO-31 = test system: UO-31
UACC-257 = test system: UACC-257
SK-MEL-28 = test system: SK-MEL-28
OVCAR-8 = test system: OVCAR-8
SK-MEL-5 = test system: SK-MEL-5
NCI-H460 = test system: NCI-H460
NCI-H522 = test system: NCI-H522
OVCAR-5 = test system: OVCAR-5
U-251 = test system: U-251
SN12C = test system: SN12C
M14 = test system: M14
HT-29 = test system: HT-29
SNB-19 = test system: SNB-19
MDA-N = test system: MDA-N
PC-3 = test system: PC-3
EKVX = test system: EKVX
NCI-H23 = test system: NCI-H23
786-0 = test system: 786-0
SF-539 = test system: SF-539
NCI-H226 = test system: NCI-H226
OVCAR-4 = test system: OVCAR-4
DU-145 = test system: DU-145
NCI/ADR-RES = test system: NCI/ADR-RES
COLO 205 = test system: COLO 205
T47D = test system: T47D
HOP-62 = test system: HOP-62
A549 = test system: A549
MDA-MB-231 = test system: MDA-MB-231
MCF7 = test system: MCF7
MOLT-4 = test system: MOLT-4
HCT-116 = test system: HCT-116
MDA-MB-435 = test system: MDA-MB-435
KM12 = test system: KM12
Malme-3M = test system: Malme-3M
Hs-578T = test system: Hs-578T
HOP-92 = test system: HOP-92
RPMI-8226 = test system: RPMI-8226

Q: How did the GI50 (SNB-75) turn out when `O=C(N/N=C/c1cc(Cl)cc(Cl)c1O)c1ccccc1O` was run?
A: Its GI50 is 2.44 µM (inactive).

Q: What about the GI50 (HL-60) of the same compound?
A: The GI50 was 0.221 µM (active).

Q: What about the GI50 (SK-OV-3) of the same compound?
A: Its GI50 is 0.687 µM (active).

Q: And the GI50 (LOX IMVI)?
A: The GI50 was 0.398 µM (active).

Q: What about the GI50 (CCRF-CEM) of the same compound?
A: Its GI50 is 0.279 µM (active).

Q: What about the GI50 (IGROV-1) of the same compound?
A: Its GI50 is 2.62 µM (inactive).

Q: What about the GI50 (SF-295) of the same compound?
A: Its GI50 is 0.721 µM (active).

Q: What about the GI50 (ACHN) of the same compound?
A: The GI50 was 0.447 µM (active).

Q: And the GI50 (RXF 393)?
A: Its GI50 is 0.946 µM (active).

Q: What about the GI50 (HCT-15) of the same compound?
A: The GI50 was 0.46 µM.

Q: What about the GI50 (K562) of the same compound?
A: The GI50 was 977 nM (active).

Q: And the GI50 (A498)?
A: The GI50 was 7.5 µM (inactive).

Q: What about the GI50 (SR) of the same compound?
A: The GI50 was 0.388 µM (active).

Q: And the GI50 (SW-620)?
A: Its GI50 is 0.601 µM (active).

Q: And the GI50 (TK-10)?
A: Its GI50 is 2.23 µM (inactive).

Q: And the GI50 (OVCAR-3)?
A: Its GI50 is 0.305 µM (active).

Q: And the GI50 (UACC-62)?
A: The GI50 was 0.323 µM (active).

Q: What about the GI50 (HCC 2998) of the same compound?
A: Its GI50 is 2.17 µM (inactive).

Q: And the GI50 (SF-268)?
A: The GI50 was 480 nM (active).

Q: What about the GI50 (UO-31) of the same compound?
A: The GI50 was 2.88 µM (inactive).

Q: What about the GI50 (UACC-257) of the same compound?
A: Its GI50 is 2.04 µM (inactive).

Q: What about the GI50 (SK-MEL-28) of the same compound?
A: Its GI50 is 1.31 µM (inactive).

Q: What about the GI50 (OVCAR-8) of the same compound?
A: The GI50 was 198 nM (active).

Q: What about the GI50 (SK-MEL-5) of the same compound?
A: The GI50 was 1.57 µM (inactive).

Q: What about the GI50 (NCI-H460) of the same compound?
A: Its GI50 is 0.656 µM (active).

Q: What about the GI50 (NCI-H522) of the same compound?
A: The GI50 was 0.441 µM (active).

Q: And the GI50 (OVCAR-5)?
A: Its GI50 is 2.08 µM (inactive).

Q: What about the GI50 (U-251) of the same compound?
A: Its GI50 is 0.849 µM (active).

Q: And the GI50 (SN12C)?
A: The GI50 was 2.36 µM (inactive).

Q: And the GI50 (M14)?
A: Its GI50 is 847 nM (active).

Q: What about the GI50 (HT-29) of the same compound?
A: The GI50 was 3.65 µM (inactive).

Q: And the GI50 (SNB-19)?
A: Its GI50 is 3.18 µM (inactive).

Q: What does the source list for `CC(C)(C)OC(=O)C1C(=O)NC(=O)CC1C(OCc1ccccc1)C(OCc1ccccc1)C(COCc1ccccc1)OCc1ccccc1` (configuration not stated)?
A: GI50 (MDA-N): > 100 µM (inactive); GI50 (PC-3): > 100 µM (inactive) and 69.2 µM (inactive); GI50 (IGROV-1): > 100 µM (inactive); GI50 (SF-295): 50.6 µM (inactive); GI50 (ACHN): > 75 µM (inactive); GI50 (HCT-15): > 100 µM; GI50 (K562): 65.8 µM (inactive) and 88.3 µM (inactive); GI50 (A498): > 75 µM (inactive); GI50 (EKVX): > 100 µM (inactive); GI50 (SW-620): > 100 µM (inactive); GI50 (TK-10): > 100 µM (inactive); GI50 (HCC 2998): > 100 µM (inactive); GI50 (SF-268): 74 µM (inactive) and 71.4 µM (inactive); GI50 (UACC-257): > 100 µM (inactive) and 58.7 µM (inactive); GI50 (NCI-H23): > 100 µM (inactive); GI50 (SK-MEL-28): > 100 µM (inactive); GI50 (OVCAR-8): > 100 µM (inactive) and 52.5 µM (inactive); GI50 (OVCAR-5): > 100 µM (inactive); GI50 (SN12C): > 100 µM (inactive); GI50 (M14): > 100 µM (inactive) and 71.8 µM (inactive); GI50 (786-0): > 100 µM (inactive); GI50 (SF-539): > 100 µM (inactive); GI50 (NCI-H226): > 100 µM (inactive) and 61.9 µM (inactive); GI50 (OVCAR-4): 50.6 µM (inactive); GI50 (DU-145): > 75 µM (inactive); GI50 (NCI/ADR-RES): > 100 µM (inactive) and 58.6 µM (inactive); GI50 (HT-29): 16.6 µM (inactive); GI50 (SNB-19): > 100 µM (inactive); GI50 (COLO 205): 58.2 µM (inactive); GI50 (T47D): 2.14 µM (inactive)

Q: How did the GI50 (SNB-75) turn out when `CC(NC1=NCCO1)c1cccs1` (configuration not stated) was run?
A: The GI50 was 37.7 µM (inactive).

Q: And the GI50 (HL-60)?
A: The GI50 was 17.9 µM (inactive).

Q: And the GI50 (HOP-62)?
A: Its GI50 is 22.2 µM (inactive).

Q: And the GI50 (SK-OV-3)?
A: Its GI50 is 57.9 µM (inactive).

Q: And the GI50 (A549)?
A: Its GI50 is 52.8 µM (inactive).

Q: And the GI50 (CCRF-CEM)?
A: Its GI50 is 20 µM (inactive).

Q: And the GI50 (IGROV-1)?
A: Its GI50 is 23.1 µM (inactive).

Q: What about the GI50 (SF-295) of the same compound?
A: Its GI50 is 16.5 µM (inactive).

Q: And the GI50 (ACHN)?
A: Its GI50 is 74.6 µM (inactive).

Q: What about the GI50 (RXF 393) of the same compound?
A: Its GI50 is > 10 µM (inactive).

Q: What about the GI50 (HCT-15) of the same compound?
A: The GI50 was 33.7 µM.

Q: What about the GI50 (MDA-MB-231) of the same compound?
A: The GI50 was 76.7 µM (inactive).

Q: What about the GI50 (MCF7) of the same compound?
A: Its GI50 is 22.7 µM (inactive).

Q: And the GI50 (K562)?
A: Its GI50 is 22100 nM (inactive).

Q: What about the GI50 (A498) of the same compound?
A: Its GI50 is 74 µM (inactive).

Q: What about the GI50 (SR) of the same compound?
A: Its GI50 is 26.4 µM (inactive).

Q: What about the GI50 (MOLT-4) of the same compound?
A: Its GI50 is 22.1 µM (inactive).

Q: What about the GI50 (HCT-116) of the same compound?
A: Its GI50 is 20 µM (inactive).

Q: And the GI50 (EKVX)?
A: Its GI50 is 88.1 µM (inactive).

Q: And the GI50 (SW-620)?
A: Its GI50 is 36.5 µM (inactive).

Q: What about the GI50 (TK-10) of the same compound?
A: The GI50 was > 100 µM (inactive).

Q: What about the GI50 (UACC-62) of the same compound?
A: The GI50 was 16.5 µM (inactive).

Q: And the GI50 (HCC 2998)?
A: Its GI50 is 17.7 µM (inactive).

Q: What about the GI50 (MDA-MB-435) of the same compound?
A: The GI50 was 19.7 µM (inactive).

Q: What about the GI50 (KM12) of the same compound?
A: Its GI50 is 15.7 µM (inactive).

Q: What about the GI50 (SF-268) of the same compound?
A: Its GI50 is 30400 nM (inactive).

Q: What about the GI50 (UO-31) of the same compound?
A: The GI50 was 24.9 µM (inactive).

Q: And the GI50 (UACC-257)?
A: The GI50 was 18.1 µM (inactive).

Q: And the GI50 (NCI-H23)?
A: The GI50 was 50.2 µM (inactive).

Q: And the GI50 (SK-MEL-28)?
A: Its GI50 is 23.1 µM (inactive).

Q: What about the GI50 (OVCAR-8) of the same compound?
A: The GI50 was 41000 nM (inactive).

Q: What about the GI50 (Malme-3M) of the same compound?
A: Its GI50 is 21.4 µM (inactive).

Q: And the GI50 (SK-MEL-5)?
A: The GI50 was 31.8 µM (inactive).

Q: And the GI50 (NCI-H460)?
A: Its GI50 is 28.8 µM (inactive).

Q: And the GI50 (Hs-578T)?
A: Its GI50 is 17.8 µM (inactive).

Q: And the GI50 (OVCAR-5)?
A: The GI50 was 69.5 µM (inactive).

Q: What about the GI50 (U-251) of the same compound?
A: The GI50 was 18.1 µM (inactive).

Q: And the GI50 (SN12C)?
A: The GI50 was 60.7 µM (inactive).

Q: What about the GI50 (HOP-92) of the same compound?
A: The GI50 was 12.6 µM (inactive).

Q: And the GI50 (M14)?
A: Its GI50 is 18200 nM (inactive).

Q: And the GI50 (RPMI-8226)?
A: Its GI50 is 23.7 µM (inactive).

Q: And the GI50 (786-0)?
A: The GI50 was 17.1 µM (inactive).

Q: And the GI50 (NCI-H226)?
A: The GI50 was 46.8 µM (inactive).

Q: And the GI50 (OVCAR-4)?
A: Its GI50 is 30.8 µM (inactive).

Q: And the GI50 (DU-145)?
A: Its GI50 is 87.9 µM (inactive).

Q: And the GI50 (NCI/ADR-RES)?
A: Its GI50 is > 100 µM (inactive).

Q: What about the GI50 (HT-29) of the same compound?
A: The GI50 was 19.1 µM (inactive).

Q: And the GI50 (SNB-19)?
A: The GI50 was 20.5 µM (inactive).

Q: And the GI50 (COLO 205)?
A: Its GI50 is 19.5 µM (inactive).

Q: And the GI50 (T47D)?
A: The GI50 was 36.4 µM (inactive).
